# Target: T1, p38 MAPK/MK2 (Homo sapiens, UniProt Q16539)
# T1 construct: purchased Carna (p38α); Abcam (MK2) 04-152; 79910
# Test: In vitro activity assay of p38 MAPK/MK2 (Z-LYTE kinase assay kit)
# Type: biochemical
# Conditions: active p38α, inactive MK2, Ser/Thr 4; 1-hour reaction at 20° C.
# Protocol: (§1) The inhibitory effect of the compound on p38 MAPK/MK2 was evaluated using the Z-LYTE kinase assay kit (Thermo, PV3177). The test compound was dissolved in DMSO to obtain a 10 mM stock solution and stored at −20° C. for future use. The initial concentration of the compound was […], with 1% DMSO, 5-fold serial dilution, 8 concentrations, and duplicate wells. […] After a 1-hour reaction at 20° C., Development Reagent A diluted 2048-fold was added to each well, followed by incubation at room temperature for 1 hour. The reaction was terminated by adding 5 μL of stop buffer, and the plate was read using a microplate reader (Ex. 400 nm, Em. 445 nm; Ex. 400 nm, Em. 520 nm). The concentration-effect curve was fitted using GraphPad Prism 8 software, and the compound concentration resulting in 50% inhibition, IC50, was calculated.
# T1 sequence (Q16539 whole entry): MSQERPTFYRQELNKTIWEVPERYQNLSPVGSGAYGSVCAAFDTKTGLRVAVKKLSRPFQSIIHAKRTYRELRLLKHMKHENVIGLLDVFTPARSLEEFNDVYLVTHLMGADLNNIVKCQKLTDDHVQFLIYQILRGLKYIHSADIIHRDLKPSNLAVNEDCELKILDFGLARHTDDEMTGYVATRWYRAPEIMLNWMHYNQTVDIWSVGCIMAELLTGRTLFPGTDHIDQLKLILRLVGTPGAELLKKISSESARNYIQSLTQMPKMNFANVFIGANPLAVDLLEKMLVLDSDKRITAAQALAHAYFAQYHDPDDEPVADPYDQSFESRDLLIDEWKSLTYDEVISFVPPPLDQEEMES
# T1 sequence (P49137 whole entry partner): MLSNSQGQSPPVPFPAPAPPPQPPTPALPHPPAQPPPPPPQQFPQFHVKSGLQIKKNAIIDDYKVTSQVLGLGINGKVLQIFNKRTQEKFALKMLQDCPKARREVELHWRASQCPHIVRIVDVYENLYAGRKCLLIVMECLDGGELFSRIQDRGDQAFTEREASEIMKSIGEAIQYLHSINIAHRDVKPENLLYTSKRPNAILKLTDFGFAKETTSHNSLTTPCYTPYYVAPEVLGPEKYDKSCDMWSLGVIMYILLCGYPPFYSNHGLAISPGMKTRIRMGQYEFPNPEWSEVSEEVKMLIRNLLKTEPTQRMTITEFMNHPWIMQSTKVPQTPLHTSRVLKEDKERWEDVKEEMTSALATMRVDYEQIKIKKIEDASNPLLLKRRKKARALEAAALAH
row,IC50 [µM],SMILES
1,0.0586,Cc1cnc(-c2cccc(C(=O)O)c2)cc1-n1c(C)cc(OCc2ncc(F)cc2F)c(Cl)c1=O [Compound 1]
2,0.0624,CNC(=O)c1cccc(-c2cc(-n3c(C)cc(OCc4ncc(F)cc4F)c(Cl)c3=O)c(C)cn2)c1 [Compound 2]
3,0.0217,Cc1cnc(-c2cccc(C(=O)N(C)C)c2)cc1-n1c(C)cc(OCc2ncc(F)cc2F)c(Cl)c1=O [Compound 3]

# System: not listed separately
# Test: In vitro liver microsome stability, mouse
# Type: in vitro ADME
# Conditions: liver microsomes, 0.5 mg/mL microsomes, 1 μM compound, NADPH, 37° C., read-out: Mouse liver microsomes Half-life T1/2
# Protocol: (§2) The reference compound used in this experiment was Ketanserin, and the final concentration of microsomes in the experimental system was 0.5 mg/mL. The PBS buffer was a 50 mM K2HPO4 buffer. The concentration of the test compound was 1 μM. The microsomes were added to PBS, and the control/test compounds were respectively added to the corresponding reaction systems, mixed thoroughly, and pre-incubated in a 37° C. water bath for 5 minutes. The reaction was initiated by adding 20 mM NADPH solution under 37° C. water bath conditions (for the No NADPH samples, an equal volume of PBS solution was used as a substitute for the 20 mM NADPH solution). At the reaction time points of 0 min, 10 min, 30 mun, 60 min, and 90 min, 30 μL of reaction samples were taken from each reaction system (for the No NADPH samples, sampling was performed at 0 min and 90 min), and the reaction was immediately terminated by adding 300 μL of the internal standard acetonitrile solution. After centrifugation at 4000 rpm, the supernatant was taken and mixed thoroughly with an equal volume of pure water. The samples at each time point were analyzed by LC-MS/MS (AB Triple Quard 5500) to determine the compound content, and the T1/2 was calculated.
row,half-life at 1 μM [h],SMILES
1,> 4.66,Cc1cnc(-c2cccc(C(=O)O)c2)cc1-n1c(C)cc(OCc2ncc(F)cc2F)c(Cl)c1=O [Compound 1]
2,3.96,CNC(=O)c1cccc(-c2cc(-n3c(C)cc(OCc4ncc(F)cc4F)c(Cl)c3=O)c(C)cn2)c1 [Compound 2]

# Target: T2, p38 MAPK/MK5 (Homo sapiens, UniProt Q16539)
# T2 construct: purchased Carna (p38α); Abcam (MK5) 04-152; 217826
# T2 sequence (Q16539 whole entry): as the sequence (Q16539 whole entry) above
# Test: In vitro activity assay of p38 MAPK/MK5 (Z-LYTE kinase assay kit)
# Type: biochemical
# Conditions: active p38α, inactive MK5, Ser/Thr 4; 4-hour reaction at 20° C.
# Protocol: as §1, with “MAPK/MK5” for “MAPK/MK2”, “4-hour” for “1-hour”, “µL” for “μL”
row,IC50 [µM],SMILES
1,6.08,Cc1cnc(-c2cccc(C(=O)O)c2)cc1-n1c(C)cc(OCc2ncc(F)cc2F)c(Cl)c1=O [Compound 1]
2,3.05,CNC(=O)c1cccc(-c2cc(-n3c(C)cc(OCc4ncc(F)cc4F)c(Cl)c3=O)c(C)cn2)c1 [Compound 2]
3,> 10,Cc1cnc(-c2cccc(C(=O)N(C)C)c2)cc1-n1c(C)cc(OCc2ncc(F)cc2F)c(Cl)c1=O [Compound 3]

# System: not listed separately
# Test: In vitro liver microsome stability, human
# Type: in vitro ADME
# Conditions: liver microsomes, 0.5 mg/mL microsomes, 1 μM compound, NADPH, 37° C., read-out: Human liver microsomes Half-life T1/2
# Protocol: as §2
row,half-life at 1 μM [h],SMILES
1,> 4.66,Cc1cnc(-c2cccc(C(=O)O)c2)cc1-n1c(C)cc(OCc2ncc(F)cc2F)c(Cl)c1=O [Compound 1]
2,4.14,CNC(=O)c1cccc(-c2cc(-n3c(C)cc(OCc4ncc(F)cc4F)c(Cl)c3=O)c(C)cn2)c1 [Compound 2]

# System: not listed separately
# Test: In vitro liver microsome stability, rat
# Type: in vitro ADME
# Conditions: liver microsomes, 0.5 mg/mL microsomes, 1 μM compound, NADPH, 37° C., read-out: Rat liver microsomes Half-life T1/2
# Protocol: as §2
row,half-life at 1 μM [h],SMILES
1,> 4.66,Cc1cnc(-c2cccc(C(=O)O)c2)cc1-n1c(C)cc(OCc2ncc(F)cc2F)c(Cl)c1=O [Compound 1]
2,4.17,CNC(=O)c1cccc(-c2cc(-n3c(C)cc(OCc4ncc(F)cc4F)c(Cl)c3=O)c(C)cn2)c1 [Compound 2]

# System: TNF-α in human PBMC cells
# Test: In vitro TNF-α activity assay in human PBMC cell supernatant (LPS, ELISA)
# Type: cell-based
# Conditions: Homo sapiens, PBMC, 24 h, LPS 100 ng/mL, read-out: p38 MAPK/TNF-α IC50
# Protocol: The inhibitory effect of the compound on TNF-α in the supernatant of human PBMC cells was evaluated using an ELISA detection kit (Beyotime, PI518). The test compound was dissolved in DMSO to obtain a 10 mM stock solution and stored at −20° C. for future use. The initial concentration of the compound was […], followed by 5-fold serial dilution to obtain 6 concentrations. Cells were plated in duplicate, and ELISA was performed in single wells. The final concentration of DMSO was 0.4%. Alternatively, the initial concentration of the compound, dilution factor, number of concentration gradients, and replicates could be adjusted based on the specific screening conditions.
# Fresh human peripheral blood mononuclear cells (PBMCs) (Sailybio) were seeded at a density of 2×10^5 cells per well in a 96-well plate (Corning, 3599), with each well containing 100 μL of RPMI-1640 (Gibco #A1049101)+10% FBS (Gibco, 10099141C), and incubated overnight at 37° C. under 5% CO2. Test compounds were added to the 96-well culture plate at a volume of 25 μL per well. After 1 hour, 5 μL of LPS was added to achieve a final concentration of 100 ng/mL. No LPS and compound were added to the negative control wells, and no compound was added to the positive control wells. The mixture was further incubated for 24 hours at 37° C. under 5% CO2. Subsequently, the cell culture supernatant was collected by centrifugation at 500 rcf for 8 minutes. The concentration of TNF-α was measured according to the operation manual of the ELISA kit. The concentration-effect curve was fitted using GraphPad Prism 8 software, and the compound concentration resulting in 50% inhibition, IC50, was calculated.
row,SMILES,IC50 [µM]
1,CNC(=O)c1cccc(-c2cc(-n3c(C)cc(OCc4ncc(F)cc4F)c(Cl)c3=O)c(C)cn2)c1 [Compound 2],0.089

# Target: T3, p38 MAPK/ATF2 (Homo sapiens, UniProt Q16539)
# T3 construct: purchased Carna Biosciences (p38α); Sino Biological (ATF2) 04-152; 11599-H20B
# Test: In vitro activity assay of p38 MAPK/ATF2 (HTRF)
# Type: biochemical
# Conditions: p38α, Human ATF2 Protein, ATP; 35 min at 20° C.
# Protocol: The inhibitory effect of the compound on p38a-catalyzed ATF2 was evaluated by the HTRF method. The test compound was dissolved in DMSO to obtain a 10 mM stock solution and stored at −20° C. for future use. The initial concentration of the compound was 10 μM, with 0.25% DMSO, 5-fold serial dilution, 8 concentrations, and duplicate wells. The reaction buffer, consisting of 40 mM Tris pH 7.5, 20 mM MgCl2, 0.1 mg/mL BSA, and 50 μM DTT, was used to prepare 3.5×p38α (MAPK14, Carna Biosciences, 04-152) protein working solution, 3.5×Human ATF2 Protein (Sino Biological, 11599-H20B) working solution, and 3.5×ATP working solution. The reaction was terminated with 10 mM EDTA. The final 14 μL reaction system was performed in a 96-well plate (cisbio, 66PL96025), containing 0.29 ng/μL p38a, […] Human ATF2 Protein, and 25 µM ATP. After reacting at 20° C. for 35 min, the pre-prepared antibody solution (cibio, 63ADK015PEG, Phospho-ATF2 Eu Cryptate antibody, Phospho-ATF2 d2 antibody, diluted 40-fold with Detection buffer) was added to each well and incubated overnight at room temperature. The samples were then measured using a microplate reader (HTRF compatible reader). The concentration-effect curve was fitted using GraphPad Prism 8 software, and the compound concentration resulting in 50% inhibition, IC50, was calculated.
row,IC50 [µM],SMILES
1,> 20,Cc1cnc(-c2cccc(C(=O)O)c2)cc1-n1c(C)cc(OCc2ncc(F)cc2F)c(Cl)c1=O [Compound 1]
2,10.3,CNC(=O)c1cccc(-c2cc(-n3c(C)cc(OCc4ncc(F)cc4F)c(Cl)c3=O)c(C)cn2)c1 [Compound 2]

# From US20260217652A1, “PHENYL-SUBSTITUTED HETEROARYL COMPOUND AND PHARMACEUTICAL COMPOSITION COMPRISING SAME, PREPARATION METHOD THEREFOR AND USE THEREOF” (SHANGHAI MEIYUE BIOTECH DEVELOPMENT CO., LTD., priority 2023, published 2026)
